Measurements taken from the NIST ThermoML archive (doi:10.1016/j.fluid.2005.06.010).

Experiment: xn = mol fraction of the nth substance listed
Settings: Fluid (supercritical or subcritical phases), Vibrating tube method

c1ccc2ccccc2c1 [naphthalene] + O=C=O
Settings | mass density [kg/m3]
313.11 K, 8747 kPa, x1 = 0.0049 | 531.42
313.11 K, 8855 kPa, x1 = 0.0049 | 556.55
313.11 K, 8983 kPa, x1 = 0.0093 | 627.46
313.11 K, 9034 kPa, x1 = 0.0093 | 633.13
313.11 K, 9048 kPa, x1 = 0.0049 | 590.85
313.11 K, 9499 kPa, x1 = 0.0049 | 639
313.11 K, 9997 kPa, x1 = 0.0049 | 670.97
313.11 K, 10053 kPa, x1 = 0.0093 | 697.27
313.11 K, 11012 kPa, x1 = 0.0049 | 712.47
313.11 K, 11036 kPa, x1 = 0.0093 | 731.61
313.11 K, 11998 kPa, x1 = 0.0093 | 755.87
313.11 K, 12044 kPa, x1 = 0.0049 | 741.27
313.11 K, 12486 kPa, x1 = 0.0173 | 783.64
313.11 K, 12995 kPa, x1 = 0.0049 | 761.49
313.11 K, 13003 kPa, x1 = 0.0093 | 775.73
313.11 K, 13034 kPa, x1 = 0.0173 | 790.35
313.11 K, 14017 kPa, x1 = 0.0049 | 779.61
313.11 K, 14028 kPa, x1 = 0.0093 | 792.52
313.11 K, 14045 kPa, x1 = 0.0173 | 805.22
313.11 K, 14979 kPa, x1 = 0.0049 | 794.2
313.11 K, 14995 kPa, x1 = 0.0093 | 806.12
313.11 K, 15031 kPa, x1 = 0.0173 | 818.06
313.11 K, 16007 kPa, x1 = 0.0093 | 818.64
313.11 K, 16029 kPa, x1 = 0.0049 | 808.12
313.11 K, 16046 kPa, x1 = 0.0173 | 829.54
313.11 K, 16999 kPa, x1 = 0.0049 | 819.57
313.11 K, 17003 kPa, x1 = 0.0093 | 829.62
313.11 K, 17015 kPa, x1 = 0.0173 | 839.94
313.11 K, 18017 kPa, x1 = 0.0173 | 849.35
313.11 K, 18019 kPa, x1 = 0.0093 | 839.78
313.11 K, 18053 kPa, x1 = 0.0049 | 830.86
313.11 K, 19023 kPa, x1 = 0.0049 | 840.37
313.11 K, 19029 kPa, x1 = 0.0093 | 849.05
313.11 K, 19030 kPa, x1 = 0.0173 | 858.05
313.11 K, 19995 kPa, x1 = 0.0093 | 857.27
313.11 K, 20008 kPa, x1 = 0.0049 | 849.27
313.11 K, 20013 kPa, x1 = 0.0173 | 865.93
313.11 K, 20987 kPa, x1 = 0.0049 | 857.52
313.11 K, 20997 kPa, x1 = 0.0093 | 865.26
313.11 K, 21031 kPa, x1 = 0.0173 | 873.48
313.11 K, 21996 kPa, x1 = 0.0049 | 865.5
313.11 K, 22000 kPa, x1 = 0.0093 | 872.7
313.11 K, 22008 kPa, x1 = 0.0173 | 880.38
313.11 K, 22977 kPa, x1 = 0.0049 | 872.82
313.11 K, 22989 kPa, x1 = 0.0173 | 886.86
313.11 K, 22998 kPa, x1 = 0.0093 | 879.67
313.11 K, 24021 kPa, x1 = 0.0093 | 886.44
313.11 K, 24036 kPa, x1 = 0.0173 | 893.38
313.11 K, 24043 kPa, x1 = 0.0049 | 880.36
313.11 K, 24684 kPa, x1 = 0.0173 | 897.25
313.11 K, 24941 kPa, x1 = 0.0093 | 892.28
313.13 K, 10564 kPa, x1 = 0.0144 | 726.54
313.13 K, 10994 kPa, x1 = 0.0144 | 737.45
313.13 K, 12022 kPa, x1 = 0.0144 | 761.26
313.13 K, 13026 kPa, x1 = 0.0144 | 779.83
313.13 K, 13996 kPa, x1 = 0.0144 | 794.9
313.13 K, 15027 kPa, x1 = 0.0144 | 808.74
313.13 K, 16009 kPa, x1 = 0.0144 | 820.49
313.13 K, 16978 kPa, x1 = 0.0144 | 831.02
313.13 K, 17970 kPa, x1 = 0.0144 | 840.48
313.13 K, 19038 kPa, x1 = 0.0144 | 850.11
313.13 K, 20010 kPa, x1 = 0.0144 | 858.26
313.13 K, 21047 kPa, x1 = 0.0144 | 866.4
313.13 K, 22028 kPa, x1 = 0.0144 | 873.6
313.13 K, 23018 kPa, x1 = 0.0144 | 880.48
313.13 K, 24032 kPa, x1 = 0.0144 | 887.14
313.13 K, 25059 kPa, x1 = 0.0144 | 893.55
318.03 K, 13470 kPa, x1 = 0.0198 | 763.8
318.03 K, 13587 kPa, x1 = 0.0198 | 765.92
318.03 K, 13765 kPa, x1 = 0.0198 | 769.11
318.03 K, 13870 kPa, x1 = 0.0198 | 770.92
318.03 K, 13982 kPa, x1 = 0.0198 | 772.89
318.03 K, 14098 kPa, x1 = 0.0198 | 774.83
318.03 K, 14247 kPa, x1 = 0.0198 | 777.23
318.03 K, 14369 kPa, x1 = 0.0198 | 779.18
318.03 K, 14487 kPa, x1 = 0.0198 | 781.08
318.03 K, 14571 kPa, x1 = 0.0198 | 782.37
318.03 K, 14668 kPa, x1 = 0.0198 | 783.91
318.03 K, 14765 kPa, x1 = 0.0198 | 785.29
318.03 K, 14877 kPa, x1 = 0.0198 | 787
318.03 K, 14970 kPa, x1 = 0.0198 | 788.42
318.03 K, 15080 kPa, x1 = 0.0198 | 789.97
318.03 K, 15304 kPa, x1 = 0.0198 | 793.1
318.03 K, 15487 kPa, x1 = 0.0198 | 795.62
